From paper PMC7707092, “Discovery and characterization of ORM‐11372, a novel inhibitor of the sodium‐calcium exchanger with positive inotropic activity” (British Journal of Pharmacology, 2020)
≈ marks a conversion by molar mass, not a printed value. Read-outs that look alike come from different tables or passages of the source.

Legend:
L-Type Ca2+ Channel = details: Table S2; cited from earlier work
NCX [1] = test system: NCX; parameters: method as in ref 9 (a number printed in a supplementary file, which may have a reference list of its own: not looked up in the article's list); details: SH-SY5Y neuron, cited from earlier work
NCX [2] = test system: NCX; parameters: method as in ref 4 (a number printed in a supplementary file, which may have a reference list of its own: not looked up in the article's list); details: CCL39 fibroblast, cited from earlier work
MAO B = target: T1, MAO B (Homo sapiens, UniProt P27338); assay: MAO B inhibition (Table S2); format: biochemical; details: 10 μM
T1 sequence (P27338 1-520): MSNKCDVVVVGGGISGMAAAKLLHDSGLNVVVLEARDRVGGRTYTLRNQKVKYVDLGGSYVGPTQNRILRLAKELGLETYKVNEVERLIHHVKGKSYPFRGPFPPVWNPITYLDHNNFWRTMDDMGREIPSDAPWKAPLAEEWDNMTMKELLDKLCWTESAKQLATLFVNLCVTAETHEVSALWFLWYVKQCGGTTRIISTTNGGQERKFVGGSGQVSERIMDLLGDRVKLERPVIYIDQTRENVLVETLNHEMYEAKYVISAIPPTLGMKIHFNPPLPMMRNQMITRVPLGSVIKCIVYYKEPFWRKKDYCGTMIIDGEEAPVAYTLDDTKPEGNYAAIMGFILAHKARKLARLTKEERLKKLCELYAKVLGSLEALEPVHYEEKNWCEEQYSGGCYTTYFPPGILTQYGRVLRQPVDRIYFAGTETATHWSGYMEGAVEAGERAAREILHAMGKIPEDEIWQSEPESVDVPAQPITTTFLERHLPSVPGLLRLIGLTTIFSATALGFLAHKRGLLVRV

MAO A = target: T2, MAO A (Homo sapiens, UniProt P21397); assay: MAO A inhibition (Table S2); format: biochemical; details: 10 μM
T2 sequence (P21397 1-527): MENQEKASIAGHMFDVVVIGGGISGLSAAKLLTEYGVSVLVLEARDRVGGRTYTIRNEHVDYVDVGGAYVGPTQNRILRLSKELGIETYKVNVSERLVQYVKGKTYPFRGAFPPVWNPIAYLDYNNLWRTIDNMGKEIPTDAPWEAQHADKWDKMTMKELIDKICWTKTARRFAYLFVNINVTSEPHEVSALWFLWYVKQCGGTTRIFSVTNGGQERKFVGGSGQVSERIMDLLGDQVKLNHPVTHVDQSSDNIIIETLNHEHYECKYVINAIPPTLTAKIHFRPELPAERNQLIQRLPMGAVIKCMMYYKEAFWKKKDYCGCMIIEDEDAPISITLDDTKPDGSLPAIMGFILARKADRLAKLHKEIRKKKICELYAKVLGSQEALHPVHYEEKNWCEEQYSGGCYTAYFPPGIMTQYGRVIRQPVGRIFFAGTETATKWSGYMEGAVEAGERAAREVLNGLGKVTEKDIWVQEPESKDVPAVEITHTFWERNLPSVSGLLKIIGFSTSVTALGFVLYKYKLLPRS

human NCX 1.1 = target: T3, human NCX 1.1 (Homo sapiens, UniProt P32418); assay: Fluorescence screening assay for hNCX 1.1 inhibition (reverse mode, Sf9 cells); format: cell-based; details: Sf9 cells expressing human NCX1.1, reverse mode, fluorescence; n=3 assays
T3 construct: expressed in transfected cells
Description: Spodoptera frugiperda (Sf9; RRID:CVCL_0549) cells are widely used for the transient and stable expression of recombinant proteins. Here, Sf9 cells were stably transfected with human NCX 1.1 and maintained in spinner flasks with insect cell culture medium (TNM‐FH), supplemented with 10% FBS, antibiotic–antimycotic solution, and 50 μg·ml^−1 of blasticidin at 28°C in a non‐humidified, CO2‐free atmosphere. The Sf9 cell suspension was subcultured three times a week.
NCX reverse mode activity was stimulated via a 50% dilution of the extracellular Na^+ level using the internal pipettor of FLEXstation, a fluorescence imaging plate reader (Molecular Devices, USA), while simultaneously monitoring intracellular calcium levels. After dilution, the concentration of other ions remained the same, but Na^+ concentration was diluted to the half of original concentration of 172 to 86 mM. For Sf9 insect cells, normal extracellular Na^+ ion concentration is 172 mM. Typically, 50 μl of a solution containing 150,000–200,000 Sf9–NCX cells was loaded onto each well of a 96‐well plate. Cells were preincubated with the intracellular calcium dye Fluo‐4 and Fluo‐6, and the concentrations of the test compound (three replicates) were determined for about 1 h at room temperature before experimentation. The extracellular solution contained (in mM) 172 NaCl, 10 HEPES, 1 CaCl2, 1.2 MgCl2, 0.33 NaH2PO4, 5 glucose, and 5 probenecid. The pH was adjusted to 7.4 with NaOH. The extracellular Na^+ was diluted by the addition of a Na^+‐free extracellular solution (containing in mM: 147 N‐methyl‐D‐glucamine (NMDG), 10 HEPES, 1 CaCl2, 1.2 MgCl2, 0.33 NaH2PO4, and 5 glucose with the pH adjusted by HCl to 7.4)‐induced robust and reproducible elevation of intracellular calcium. The osmolarity of both solutions was adjusted to 340–355 mOsm in order to match the Sf9 cell media osmolarity. In each plate, the IC50 determination for each test compound was based on relative fluorescence changes in comparison with control and 5‐mM nickel acetate‐induced NCX inhibition.

Solubility = format: physicochemical; details: pH 7.4 phosphate buffer
hERG = hERG (Homo sapiens, UniProt Q12809); assay: hERG IC50 of Table 1 / Table S2 (method not assigned); format: cell-based; details: human; n=4 assays
Chain of hERG (Q12809 whole entry): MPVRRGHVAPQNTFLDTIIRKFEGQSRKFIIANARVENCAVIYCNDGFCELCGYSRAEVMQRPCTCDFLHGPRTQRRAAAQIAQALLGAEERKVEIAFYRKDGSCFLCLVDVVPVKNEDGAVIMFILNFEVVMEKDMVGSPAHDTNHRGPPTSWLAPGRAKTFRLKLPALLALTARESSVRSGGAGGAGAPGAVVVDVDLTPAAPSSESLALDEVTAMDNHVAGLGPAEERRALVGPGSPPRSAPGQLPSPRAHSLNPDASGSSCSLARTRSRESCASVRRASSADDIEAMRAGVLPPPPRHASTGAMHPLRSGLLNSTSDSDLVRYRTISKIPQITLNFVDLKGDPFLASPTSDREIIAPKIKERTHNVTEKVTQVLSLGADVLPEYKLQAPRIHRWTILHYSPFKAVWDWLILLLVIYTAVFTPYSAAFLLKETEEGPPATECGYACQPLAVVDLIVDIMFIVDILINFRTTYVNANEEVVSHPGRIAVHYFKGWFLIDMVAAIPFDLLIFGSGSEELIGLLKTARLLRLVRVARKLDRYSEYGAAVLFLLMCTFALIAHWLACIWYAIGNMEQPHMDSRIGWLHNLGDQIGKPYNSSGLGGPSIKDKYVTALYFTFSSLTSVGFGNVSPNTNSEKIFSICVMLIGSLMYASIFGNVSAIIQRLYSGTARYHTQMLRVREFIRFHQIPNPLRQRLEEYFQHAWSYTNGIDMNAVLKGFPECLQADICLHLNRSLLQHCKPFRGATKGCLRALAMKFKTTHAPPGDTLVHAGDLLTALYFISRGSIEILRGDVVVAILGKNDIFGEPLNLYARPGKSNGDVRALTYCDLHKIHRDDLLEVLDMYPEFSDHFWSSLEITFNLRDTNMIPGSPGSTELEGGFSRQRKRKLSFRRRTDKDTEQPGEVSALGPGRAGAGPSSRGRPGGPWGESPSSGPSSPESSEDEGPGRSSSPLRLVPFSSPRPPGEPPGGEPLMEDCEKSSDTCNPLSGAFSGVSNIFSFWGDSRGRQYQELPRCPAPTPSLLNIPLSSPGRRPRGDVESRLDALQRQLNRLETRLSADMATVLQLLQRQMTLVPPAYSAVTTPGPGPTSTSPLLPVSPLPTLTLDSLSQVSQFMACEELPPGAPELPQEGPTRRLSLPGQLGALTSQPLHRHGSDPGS

hNCX1 = hNCX1 (Homo sapiens, UniProt P32418); assay: Confirmatory fluorescence assay for hNCX1 inhibition (forward mode, HEK293 cells, Charles River); format: cell-based
Description: A confirmatory hNCX1 inhibition assay was performed in Charles River Laboratories, Cleveland. Briefly, HEK293 cells stably expressing hNCX1 were plated in 384‐well black wall, clear‐bottom microtitre plates and the next day loaded with Fluo‐8 for 30 min at 37°C. A plate was inserted into a FLIPR^TETRA, and a baseline was recorded during a preincubation period where test compound or vehicle in a Na^+‐free HB‐PS containing thapsigargin (6 μM) and […] (30 μM) was added to each well for ~5 min. Next, the NCX1 stimulation period was recorded in which Na^+‐containing HB‐PS (with 2‐μM thapsigargin and 10‐μM FCCP) was added. The experiments were performed at room temperature. The kinetic data generated were reduced for each well to maximum relative fluorescence units (RFU) minus minimum RFU after subtracting bias based on the first sample. The mean of the max–min RFU values during the stimulation period for the 3–4 replicates at each concentration on a plate was then plotted versus concentration and fitted to a Hill equation.

NCX [3] = test system: NCX; parameters: method as in ref 1 (a number printed in a supplementary file, which may have a reference list of its own: not looked up in the article's list); details: Rat, cited from earlier work
NCX [4] = test system: NCX; parameters: method as in ref 1 (a number printed in a supplementary file, which may have a reference list of its own: not looked up in the article's list); details: Rabbit, cited from earlier work

Row | inhibition at 10 µM (MAO B) | inhibition at 10 µM (MAO A) | IC50 (human NCX 1.1) | solubility (Solubility; phosphate buffer, pH 7.4, aqueous buffer, read-out: Solubility class) | IC50 (hNCX1; HEK293, text, read-out: IC50 hNCX1 (forward mode)) | IC50 (hNCX1; HEK293, forward mode, Table S2, read-out: hNCX1-HEK IC50) | Structure (SMILES) | IC50 (L-Type Ca2+ Channel) | IC50 (NCX [1]; read-out: IC50 NCX forward) | IC50 (NCX [1]; read-out: IC50 NCX reverse) | IC50 (NCX [2]; read-out: IC50 NCX forward) | IC50 (NCX [2]; read-out: IC50 NCX reverse) | IC50 (hERG) | IC50 (NCX [3]; read-out: IC50 NCX forward) | IC50 (NCX [3]; read-out: IC50 NCX reverse) | Solubility class (Solubility) | IC50 (NCX [4]; read-out: IC50 NCX forward) | IC50 (NCX [4]; read-out: IC50 NCX reverse)
1 | – | – | – | – | – | – | Nc1cccc(CNC(=O)c2ccc(Oc3ccc(OCc4cccc(F)c4)cc3)nc2)c1 [YM-244769] | > 3000 nM | 68 nM | 96 nM | – | – | – | – | – | – | – | –
2 | 80% | 38% | 16000 nM | 10 to 100 µg/mL (≈ 24.8 to 248 µM) | > 100000 nM | – | CCOC(=O)C1CSC(Cc2ccc(OCc3ccc([N+](=O)[O-])cc3)cc2)N1 (stereo not drawn) [SN‐6, 2‐[4‐(4‐nitrobenzyloxy)benzyl]thiazolidine‐4‐carboxylic acid ethyl ester] | – | – | – | > 30000 nM | 29000 nM | 102000 nM | – | – | – | – | –
3 | – | – | 3790 nM | – | – | 3590 nM | N=C(N)SCCc1ccc(OCc2ccc([N+](=O)[O-])cc2)cc1 [KB-R7943] | – | – | – | – | – | – | 120 nM | 61 nM | Moderate (moderate solubility between 10-100 µg/ml) | 243 nM | 309 nM
